Assay results as given in US20200171065A1, “METHOD FOR TREATING LIVER DISEASE WITH KINSENOSIDE” (HUAZHONG UNIVERSITY OF SCIENCE AND TECHNOLOGY, priority 2017, published 2020).
Entries after “also recorded” stand apart in the source; their conditions may differ.

Key:
Format in all cases: in vivo
[1] = test system: C57BL/6J mice with alcoholic liver fibrosis; assay: Alcoholic liver fibrosis (Lieber-DeCarli liquid diet + CCl4)
Experimental: C57BL/6J mice aged 8 weeks were raised in the SPF experimental animal center of Tongji Medical College of Huazhong University of Science and Technology. They were provided with standard diet and drinking water. The room temperature was controlled at 23±2° C. After 7 days of adaptive feeding, they were given drugs by intragastric administration.
The mice were fed with a 5% alcoholic Lieber-DeCarli liquid diet and intraperitoneal injection of CCl4 (CCl4 was intraperitoneally injected twice a week for the last four weeks). The mice were developed alcoholic fatty liver disease. The mice were administered with alcohol and drugs. Spherically, drinking water were administered to the control group and the model group, and different doses were administered to the dose groups.

[2] = test system: C57 mice with D-GalN/LPS acute liver failure; assay: Acute liver failure induced by D-GalN + LPS
Experimental: 60 SPF male C57 mice were purchased and raised in the SPF experimental animal center of Tongji Medical College of Huazhong University of Science and Technology. The mice were provided with standard diet and drinking water. The room temperature was controlled at 23±2° C. After 7 days of adaptive feeding, the mice were administered by intragastric administration. The mice were divided into a control group (administered with distilled water), a model group (administered with distilled water), a high dose group (KD-400 group, 400 mg/kg KD), a medium dose group (KD-200 group, 200 mg/kg KD) and a low dose group (KD-100 group, 100 mg/kg KD), ten mice each group. The mice were weighed the next day, and were continuously administered with above drugs respectively for 10 days. One hour after the last gavage, the mice were injected intraperitoneally (the control group was injected with the same amount of normal saline). The agent for the intraperitoneal injection was galactosamine (D-GalN, 500 mg/kg)+lipopolysaccharide (LPS, Eschericia coli 0111: B4, 5 ug/kg), all purchased from Sigma-Aldrich.

[3] = test system: C57 mice with MCD-induced NASH; assay: Nonalcoholic steatohepatitis induced by methionine choline deficiency (MCD) feed
Experimental: 150 SPF male mice C57 aged 6-8 weeks were raised in the SPF experimental animal center of Tongji Medical College of Huazhong University of Science and Technology. They were provided with standard diet and drinking water. The room temperature was controlled at 23±2° C. After 7 days of adaptive feeding, they were given drugs by intragastric administration. […] The control groups were administered with normal diet. The model group and each administration group were fed with methionine choline deficiency (MCD) feed. Each group was administrated by gavage. The control group and the model group were given equal amount of thrice steamed water once a day for 8 weeks. The mice were weighed every three days. The hair color, state, food, water and defecation of each group were observed, and the death of each group was recorded. At the end of the 2nd week, 4th week and 6th week, three mice were randomly selected and killed to observe the modeling state. At the end of the 8th week, after the last administration, all mice were provided with no food but water for 12 hours, and all indexes were measured.

O=C1C[C@@H](O[C@@H]2O[C@H](CO)[C@@H](O)[C@H](O)[C@H]2O)CO1 [KD]
fibrosis degree (Masson staining) ([1]; 40 and 20 mg/kg KD): can significantly reduce the degree of fibrosis in mice; also recorded: the fibrosis degree was reduced | inflammatory cells and Mallory bodies (H&E staining) ([1]; 40 and 20 mg/kg KD): the inflammatory cells in the KD group were reduced compared with the model group | SOD activity in the liver homogenate / oxidative stress injuries ([1]; ALF mice): increased the activity of superoxide dismutase (SOD) in the liver of AFL and ALF mice; also recorded: could reverse the oxidative stress injuries | serum ALT ([1]; ALF mice): decreased the serum alanine aminotransferase (ALT) of AFL and ALF mice; also recorded: decreased after KD treatment | secretion of TNF-α and IL-6 ([1]; high and medium dose groups): inhibited the secretion of TNF and IL6 in AFL and ALF; also recorded: reduced the secretion of the inflammatory cytokine TNF-α and IL-6 | therapeutic effect on alcoholic liver fibrosis (overall) ([1]; mouse, in vivo): has a good therapeutic effect on alcoholic fatty liver and alcoholic liver fibrosis | bleeding and swelling of the liver (appearance) ([2]; KD 100-400 mg/kg, 10 days, gavage, silymarin dose not given): can significantly improve the bleeding and swelling of the liver | inflammatory cytokines TNF-α, IL-12p70, IFN-γ (flow cytometry kit) ([2]; high, medium and low dose groups): had significant anti-inflammatory effect | liver histopathological damage (H&E staining) ([2]; high, middle and low KD dose groups): can reduce liver histopathological damage | apoptotic marker proteins PARP and C-C3 (Western blot) ([2]; high-dose group): could reduce abnormal apoptosis of hepatocytes; also recorded: could down regulate the apoptotic protein | apoptosis of liver cells (Tunel fluorescence staining) ([2]; mouse, in vivo): could inhibit abnormal apoptosis of the liver cells | development of acute liver failure (overall) ([2]; mouse, in vivo): can effectively prevent the development of acute liver failure and reduce liver damage | endoplasmic reticulum stress, expansion and vesiculation ([2]; mouse, in vivo): could down-regulate the process | liver weight/body weight ([2]; mouse, in vivo): could improve the weight gain of liver bleeding | mitochondrial structure of the liver (transmission electron microscopy) ([2]; mouse, in vivo): the mitochondrial structure of the liver of the mice was protected | oxidative stress injuries (MDA, SOD) ([2]; mouse, in vivo): protect the mice from the oxidative stress injuries | lipid droplet area of sections (Image J), compared with the positive group ([3]; 8 w, high-dose KD group): even better than that of the positive group | liver fat accumulation (oil red O staining) ([3]; 40, 20 and 10 mg/kg KD): Fat accumulation in liver was significantly reduced | liver cell apoptosis / Cleaved Caspase3 (CC3) protein (immunohistochemical staining) ([3]; KD group at different doses): could reduce the liver cell apoptosis to varying degrees, thus reducing the expression of liver CC3 protein | expression of Bcl-2, Bax and Casp3 genes in liver (RT-qPCR) ([3]; KD high-dose group): significantly increased the expression of anti-apoptotic gene Bcl-2, decreased the expression of pro-apoptotic gene Bax, reduced the expression of apoptotic marker gene Casp3 | fiber formation (Masson staining, fiber area) ([3]; all the KD groups, 8 weeks): the liver fiber content decreased, and the effect of KD was even better than that of the positive drug group; also recorded: had inhibitory effect on the fiber formation | liver coefficient (liver index) ([3]; different doses of KD): could reduce liver fat and normalize the liver index; also recorded: reduce liver coefficient | ALT and AST levels in the serum ([3]; different doses of KD, 8 weeks): the AST and ALT levels were decreased in each dose group of KD; also recorded: could significantly reduce the ALT and AST levels in the serum | expression of fibrotic marker protein α-SMA (Western blot, immunohistochemistry) ([3]; each KD dose group): could reduce the expression of α-SMA; also recorded: could be reduced in each KD dose group | lipid content ([3]; each KD group): slightly increased | serum HA and LN (ELISA) ([3]; each dose group of KD): could significantly reduce the content of HA and LN; also recorded: could reduce the content of HA and LN in varying degrees | expression of Bcl-xl and BAX proteins in liver (Western Blot) ([3]; mouse, in vivo): the expression of anti-apoptotic protein Bcl-xl was increased, and the proapoptotic protein BAX was inhibited | expression of MMP-13 in the liver (qPCR) ([3]; mouse, in vivo): increase the expression of matrix metalloproteinase-13 (MMP-13) | expression of pro-apoptotic and anti-apoptotic genes and proteins ([3]; mouse, in vivo): could also reduce the expression of pro-apoptotic genes and proteins, and increase the expression of anti-apoptotic genes | expression of α-SMA, Col I, TIMP-1 and TGF-β in the liver (qPCR) ([3]; mouse, in vivo): could effectively inhibit the expression | inflammatory infiltration of liver (HE staining) ([3]; mouse, in vivo): could inhibit the inflammatory infiltration of liver | oxidative stress (SOD, MDA in liver) ([3]; mouse, in vivo): SOD content in the liver increased and oxidative product MDA decreased; also recorded: could reverse the oxidative stress injuries | shear wave velocity / liver hardness (SWE) ([3]; mouse, in vivo): the liver hardness of the KD group decreased; also recorded: could significantly reduce the shear wave velocity | therapeutic effect on MCD-induced NASH (overall, vs silymarin and Fuzheng Huayu capsule) ([3]; mouse, in vivo): dose-dependent, and its effect was similar to that of the drugs silymarin and Fuzheng Huayu capsule, and was better than that of the drugs in some indexes; also recorded: has a good therapeutic effect on MCD-induced NASH
